Reference: ChEMBL document CHEMBL1201862, “PubChem BioAssay data set” (2004)
The source made the active and inactive calls.

Assays:
[1] = inhibitors of intracellular T. cruzi replication, confirmation, NIH3T3 host cells, beta-gal luminescence (AID 2044); type: functional, cell-based;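 note: intracellular parasites grown in NIH/3T3 mouse fibroblasts as host cells; luminescent beta-galactosidase reporter signal from transgenic T. cruzi replicating inside host cells; inhibitors lower the luminescence signal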
Caspase-3 = biological target: T1, Caspase-3 (Homo sapiens, UniProt P42574); type: functional;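 note: Dose-response selectivity test against caspase-3 for candidate inhibitors of sentrin-specific proteases (SENPs)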
T1 sequence (P42574 whole entry): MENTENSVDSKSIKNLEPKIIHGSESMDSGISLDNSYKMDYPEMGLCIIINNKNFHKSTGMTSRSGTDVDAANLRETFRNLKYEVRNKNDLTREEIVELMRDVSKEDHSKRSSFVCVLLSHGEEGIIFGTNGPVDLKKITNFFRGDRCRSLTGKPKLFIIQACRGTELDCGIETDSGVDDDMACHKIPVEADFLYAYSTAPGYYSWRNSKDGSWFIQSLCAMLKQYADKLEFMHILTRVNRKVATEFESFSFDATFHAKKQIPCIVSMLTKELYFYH

[2] = biological target: T2, Sentrin-specific protease 8 (Homo sapiens, UniProt Q96LD8); experiment: SENP8 protease inhibitors, SAR follow-up, biochemical, luminescence (AID 504501); type: functional
T2 sequence (Q96LD8 whole entry): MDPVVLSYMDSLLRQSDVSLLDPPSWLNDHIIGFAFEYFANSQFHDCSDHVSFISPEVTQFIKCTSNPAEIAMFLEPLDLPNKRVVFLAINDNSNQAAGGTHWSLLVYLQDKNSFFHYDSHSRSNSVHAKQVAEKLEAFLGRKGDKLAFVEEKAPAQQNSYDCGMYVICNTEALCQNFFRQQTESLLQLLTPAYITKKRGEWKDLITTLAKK

[3] = biological target: T3, Sentrin-specific protease 6 (Homo sapiens, UniProt Q9GZR1); experiment: SAR Analysis of small molecule inhibitors of Sentrin-specific protease 6 (SENP6) using a Luminescent assay. [Related pubchem assays (depositor defined):AID2582, AID2599]; type: functional
T3 sequence (Q9GZR1 whole entry): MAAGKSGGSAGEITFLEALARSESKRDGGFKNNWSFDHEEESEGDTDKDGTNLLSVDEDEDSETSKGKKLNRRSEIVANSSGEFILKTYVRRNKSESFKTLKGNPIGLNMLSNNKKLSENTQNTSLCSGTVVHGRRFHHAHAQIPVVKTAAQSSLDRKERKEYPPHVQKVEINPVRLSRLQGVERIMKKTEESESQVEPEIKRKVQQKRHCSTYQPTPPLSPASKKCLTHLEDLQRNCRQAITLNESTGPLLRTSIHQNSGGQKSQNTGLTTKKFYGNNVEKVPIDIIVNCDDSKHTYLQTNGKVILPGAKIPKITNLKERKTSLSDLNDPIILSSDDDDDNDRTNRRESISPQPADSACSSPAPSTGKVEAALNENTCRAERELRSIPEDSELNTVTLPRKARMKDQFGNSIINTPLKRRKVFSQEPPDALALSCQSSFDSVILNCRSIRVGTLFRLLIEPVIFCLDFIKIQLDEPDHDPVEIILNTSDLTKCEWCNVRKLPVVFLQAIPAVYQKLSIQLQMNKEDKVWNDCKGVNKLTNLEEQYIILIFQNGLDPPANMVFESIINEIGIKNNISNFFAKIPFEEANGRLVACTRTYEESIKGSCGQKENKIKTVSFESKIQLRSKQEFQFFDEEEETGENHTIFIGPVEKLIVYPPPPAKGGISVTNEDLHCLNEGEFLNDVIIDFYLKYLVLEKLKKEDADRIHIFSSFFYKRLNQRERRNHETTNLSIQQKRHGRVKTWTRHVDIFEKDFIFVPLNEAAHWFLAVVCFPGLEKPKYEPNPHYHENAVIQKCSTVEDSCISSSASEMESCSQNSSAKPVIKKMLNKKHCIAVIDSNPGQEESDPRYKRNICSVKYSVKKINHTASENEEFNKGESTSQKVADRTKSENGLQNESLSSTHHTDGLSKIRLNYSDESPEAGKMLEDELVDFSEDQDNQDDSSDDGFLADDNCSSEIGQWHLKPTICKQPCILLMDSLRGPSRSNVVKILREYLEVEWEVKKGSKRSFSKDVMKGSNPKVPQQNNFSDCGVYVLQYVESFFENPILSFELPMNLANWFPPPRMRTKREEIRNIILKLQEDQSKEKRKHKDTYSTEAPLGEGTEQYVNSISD

HEK293 [4] = experiment: NOD1 signaling inhibitors, primary screen, cell-based, luminescence, uHTS (AID 1578); type: functional; conditions: Homo sapiens
HEK293 [5] = experiment: cells; type: functional, cell-based; conditions: Homo sapiens
Streptococcus = experiment: Group A Streptococcus viability loss, dose response, counter-screen for streptokinase expression inhibitor project, luminescence, BacTiterGlo (AID 1915); type: functional, organism-based;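 note: potency for reduction of bacterial viability or growth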
H4 = experiment: Inhibitors of Prion Protein 5' UTR mRNA Measured in Cell-Based System Using Plate Reader - 2078-01_Inhibitor_Dose_DryPowder_Activity. [Related pubchem assays (depositor defined):AID488894]; type: functional; conditions: Homo sapiens
SUMO-activating enzyme = SUMO-activating enzyme (Homo sapiens, UniProt Q9UBT2); experiment: inhibitors of in vitro SUMOylation cascade, primary screen, biochemical, HTRF, uHTS (AID 2006); type: protein-complex assay
SUMO E1/E2 = SUMO E1/E2 (Homo sapiens, UniProt P63279+Q9UBE0+Q9UBT2); experiment: SAR analysis of SUMOylation using HTRF in an in-Vitro dose response assay. [Related pubchem assays (depositor defined):AID2006, AID2011, AID2018, AID2069, AID2658]; type: functional
[6] = AlphaScreen signal interference compounds, dose response, artefact control for ARNT-TACC3 interaction inhibitor project, biochemical, luminescence, cherry-pick (AID 651705); type: functional;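 note: AlphaScreen bead proximity signal that flags compounds interfering with the detection technology; potency reflects signal decrease which marks the compound as an assay artifact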
[7] = ARNT/TACC3 interaction disruptors, potency, confirmation, biochemical, AlphaScreen, cherry-picked samples (AID 651703); type: functional, Homo sapiens;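 note: His-tagged ARNT PAS-B domain paired with GST-TACC3 E629A dimer coactivator fragment; potency of inhibitors that break up the complex and lower AlphaScreen signal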

Chain of SUMO E1/E2 (Q9UBE0 whole entry): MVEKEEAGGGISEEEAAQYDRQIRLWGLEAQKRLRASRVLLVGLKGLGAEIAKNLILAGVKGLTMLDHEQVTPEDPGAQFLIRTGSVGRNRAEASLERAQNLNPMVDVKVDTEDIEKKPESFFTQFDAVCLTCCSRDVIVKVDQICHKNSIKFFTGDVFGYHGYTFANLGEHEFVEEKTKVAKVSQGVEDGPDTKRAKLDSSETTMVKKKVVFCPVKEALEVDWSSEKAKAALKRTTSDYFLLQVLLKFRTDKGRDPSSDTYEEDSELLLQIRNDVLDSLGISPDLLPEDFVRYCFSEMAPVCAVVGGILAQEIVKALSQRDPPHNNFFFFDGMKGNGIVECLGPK
Chain of SUMO E1/E2 (Q9UBT2 whole entry): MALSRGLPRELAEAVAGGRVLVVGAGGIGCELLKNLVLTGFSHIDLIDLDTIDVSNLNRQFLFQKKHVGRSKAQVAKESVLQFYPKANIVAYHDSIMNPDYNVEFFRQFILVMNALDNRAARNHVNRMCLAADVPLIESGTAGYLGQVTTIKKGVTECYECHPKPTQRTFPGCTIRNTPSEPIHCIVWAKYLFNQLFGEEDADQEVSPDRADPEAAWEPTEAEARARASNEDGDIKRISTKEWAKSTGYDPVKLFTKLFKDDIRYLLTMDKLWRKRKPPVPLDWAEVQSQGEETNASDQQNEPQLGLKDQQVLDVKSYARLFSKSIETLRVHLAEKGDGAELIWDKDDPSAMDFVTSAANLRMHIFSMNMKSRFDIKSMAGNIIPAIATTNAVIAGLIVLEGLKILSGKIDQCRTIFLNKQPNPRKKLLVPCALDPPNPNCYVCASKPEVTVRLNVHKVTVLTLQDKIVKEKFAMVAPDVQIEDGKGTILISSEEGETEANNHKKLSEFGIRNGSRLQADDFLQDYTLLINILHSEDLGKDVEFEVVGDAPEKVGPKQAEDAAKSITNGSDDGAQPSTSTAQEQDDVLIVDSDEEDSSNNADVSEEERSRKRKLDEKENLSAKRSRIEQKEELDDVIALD
Chain of SUMO E1/E2 (P63279 whole entry): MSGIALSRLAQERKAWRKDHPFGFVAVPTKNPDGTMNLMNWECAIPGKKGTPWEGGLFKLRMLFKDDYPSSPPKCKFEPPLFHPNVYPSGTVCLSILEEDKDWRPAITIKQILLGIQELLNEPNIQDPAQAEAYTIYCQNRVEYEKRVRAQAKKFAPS
Chain of SUMO-activating enzyme (Q9UBE0 whole entry): as the sequence (Q9UBE0 whole entry) above
Chain of SUMO-activating enzyme (Q9UBT2 whole entry): as the sequence (Q9UBT2 whole entry) above

With `Cc1ccc(C(=O)NNc2cc(N3CCCC3)nc(N3CCCC3)n2)cc1` the EC50 [1] was 2.3 µM (active), the IC50 (Caspase-3) was > 100 µM (inactive) and the IC50 [2] was 4.39 µM (active). For the same compound, the IC50 [3] was 2.3 µM (active).
In the case of `Cc1cc(/C=C2\SC(=S)N(C)C2=O)c(C)n1-c1ccc(O)cc1`, the EC50 (HEK293 [4]) is reported as 9.47 µM (active), the IC50 (HEK293 [5]) is reported as > 20 µM (inactive) and the EC50 (Streptococcus) is reported as 3.06 µM (active). For the same compound, the AC50 (H4) was 0.181 µM (active).
In the case of `COC(=O)c1cccc(-c2ccc(C(c3c(C)n[nH]c3O)c3c(C)n[nH]c3O)o2)c1`, the IC50 (SUMO-activating enzyme) is reported as > 100 µM (inactive), the IC50 (SUMO E1/E2) is reported as > 100 µM (inactive) and the AC50 [6] is reported as 107 µM (active). The AC50 [7] was 87.9 µM (active).
